Measurements taken from patent US20240391862A1, “(1,4,5-TRISUBSTITUTED-1H-PYRAZOL-3-YL)OXY-2-ALKOXY ALKYL ACIDS AND THEIR DERIVATIVES, THEIR SALTS AND THEIR USE AS HERBICIDAL AGENTS” (Bayer AKtiengesellschaft, priority 2021, published 2024).

Tests used:
Assay in all cases: Post-emergence herbicidal effect, greenhouse pot test
[1] = test system: SETVI; assay type: in vivo, Setaria viridis; details: for pest or weed control at 80 g/ha / pest or weed control at 320 g/ha: Setaria viridis, 504 h, read-out: Post-emergence effect against SETVI in %
Summary of the method: (§1)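 Sandy loam pots, greenhouse. One-leaf stage (2–3 wk after sowing) foliar spray; WP/EC in water + 0.5% additive, 600 l/ha; 20–320 g/ha. Visual score ~3 wk, 0–100% vs untreated.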

[2] = test system: PHBPU; assay type: in vivo, Ipomoea purpurea
Summary of the method: as §1

[3] = test system: ALOMY; assay type: in vivo, Alopecurus myosuroides; details: visual rating about 3 weeks after treatment; for pest or weed control at 80 g/ha / pest or weed control at 320 g/ha: Alopecurus myosuroides, 504 h, read-out: Post-emergence effect against ALOMY
Summary of the method: as §1

[4] = test system: ECHCG; assay type: in vivo, Echinochloa crus-galli; details: for pest or weed control at 80 g/ha / pest or weed control at 320 g/ha: read-out: Post-emergence effect against ECHCG in %
Summary of the method: as §1

[5] = test system: VERPE; assay type: in vivo, Veronica persica; details: for pest or weed control at 80 g/ha / pest or weed control at 320 g/ha: Veronica persica, 504 h, read-out: Post-emergence effect against VERPE in %
Summary of the method: as §1

[6] = test system: MATIN; assay type: in vivo, Tripleurospermum inodorum; details: for pest or weed control at 80 g/ha / pest or weed control at 320 g/ha: Tripleurospermum inodorum, 504 h, read-out: Post-emergence effect against MATIN in %
Summary of the method: as §1

[7] = test system: POLCO; assay type: in vivo, Fallopia convolvulus
Summary of the method: as §1

[8] = test system: DIGSA; assay type: in vivo, Digitaria sanguinalis; details: visual rating about 3 weeks after treatment
Summary of the method: as §1

[9] = test system: ABUTH; assay type: in vivo, Abutilon theophrasti; details: visual rating about 3 weeks after treatment; for pest or weed control at 80 g/ha / pest or weed control at 320 g/ha: Abutilon theophrasti, 504 h, read-out: Post-emergence effect against ABUTH
Summary of the method: as §1

[10] = test system: LOLRI; assay type: in vivo, Lolium rigidum
Summary of the method: as §1

[11] = test system: KCHSC; assay type: in vivo
Summary of the method: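 Visual rating of activity against untreated plants (100% = plants died, 0% = no effect), done about 3 weeks after treatment. Compounds applied at 20–320 g/ha as aqueous spray (600 l/ha, 0.5% additive) from WP or EC formulations onto one-leaf-stage plants grown in sandy loam under greenhouse conditions.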

[12] = test system: AVEFA; assay type: in vivo, Avena fatua; details: visual rating about 3 weeks after treatment; for pest or weed control at 80 g/ha / pest or weed control at 320 g/ha: Avena fatua, 504 h, read-out: Post-emergence effect against AVEFA
Summary of the method: as §1

[13] = test system: AMARE; assay type: in vivo, Amaranthus retroflexus; details: visual rating about 3 weeks after treatment
Summary of the method: as §1

[14] = test system: VIOTR; assay type: in vivo, Viola tricolor
Summary of the method: as §1

[15] = Ipomoea purpurea, 504 h, 80 g/ha, read-out: Post-emergence effect against PHBPU in %
[16] = Ipomoea purpurea, 504 h, 320 g/ha, read-out: Post-emergence effect against PHBPU in %
[17] = Echinochloa crus-galli, 504 h, 80 g/ha
[18] = Echinochloa crus-galli, 504 h, 320 g/ha
[19] = Fallopia convolvulus, 504 h, 80 g/ha, read-out: Post-emergence effect against POLCO in %
[20] = Fallopia convolvulus, 504 h, 320 g/ha, read-out: Post-emergence effect against POLCO in %
[21] = Digitaria sanguinalis, 504 h, 320 g/ha, read-out: Post-emergence effect against DIGSA
[22] = Lolium rigidum, 504 h, 320 g/ha, read-out: Post-emergence effect against LOLRI in %
[23] = 504 h, read-out: Post-emergence effect against KCHSC in %
[24] = 504 h, 320 g/ha, read-out: Post-emergence effect against KCHSC in %
[25] = Amaranthus retroflexus, 504 h, 80 g/ha, read-out: Post-emergence effect against AMARE
[26] = Amaranthus retroflexus, 504 h, 320 g/ha, read-out: Post-emergence effect against AMARE
[27] = Viola tricolor, 504 h, 80 g/ha, read-out: Post-emergence effect against VIOTR in %
[28] = Viola tricolor, 504 h, 320 g/ha, read-out: Post-emergence effect against VIOTR in %

With `COC(=O)C(OC)Oc1nn(-c2ccccc2F)c(-c2ccc(F)nc2)c1C(F)(F)F` (stereo not shown) [Example I-70] the pest or weed control at 80 g/ha ([1]; 80 g/ha) was 80%, the pest or weed control at 320 g/ha ([1]; 320 g/ha) was 80% and the pest or weed control at 80 g/ha [2, 15] was 90%. It also gave a pest or weed control at 320 g/ha [2, 16] of 90%, a pest or weed control at 80 g/ha ([3]; 80 g/ha) of 80% and a pest or weed control at 320 g/ha ([3]; 320 g/ha) of 90%. It also gave a pest or weed control at 80 g/ha [4, 17] of 90%, a pest or weed control at 320 g/ha [4, 18] of 90% and a pest or weed control at 80 g/ha ([5]; 80 g/ha) of 90%. It also gave a pest or weed control at 320 g/ha ([5]; 320 g/ha) of 90%, a pest or weed control at 80 g/ha ([6]; 80 g/ha) of 80% and a pest or weed control at 320 g/ha ([6]; 320 g/ha) of 80%. It also gave a pest or weed control at 20 g/ha ([7]; Fallopia convolvulus, 504 h, 20 g/ha, read-out: Post-emergence effect against POLCO in %) of 80%, a pest or weed control at 80 g/ha [7, 19] of 80% and a pest or weed control at 320 g/ha [7, 20] of 80%. The pest or weed control at 80 g/ha ([8]; Digitaria sanguinalis, 504 h, 80 g/ha, read-out: Post-emergence effect against DIGSA) was 80%, the pest or weed control at 320 g/ha [8, 21] was 90% and the pest or weed control at 80 g/ha ([9]; 80 g/ha) was 80%. It also gave a pest or weed control at 320 g/ha ([9]; 320 g/ha) of 90%, a pest or weed control at 320 g/ha [10, 22] of 90% and a pest or weed control at 20 g/ha ([11]; 504 h, 20 g/ha, read-out: Post-emergence effect against KCHSC in %) of 80%. The pest or weed control at 80 g/ha [11, 23] was 90%, the pest or weed control at 320 g/ha [11, 24] was 90% and the pest or weed control at 80 g/ha ([12]; 80 g/ha) was 90%. The pest or weed control at 320 g/ha ([12]; 320 g/ha) was 90%, the pest or weed control at 80 g/ha [13, 25] was 80% and the pest or weed control at 320 g/ha [13, 26] was 80%. The pest or weed control at 80 g/ha [14, 27] was 90% and the pest or weed control at 320 g/ha [14, 28] was 90%.

With `COC(=O)C(OC)Oc1nn(-c2ncccc2F)c(-c2cncc(F)c2)c1C1CC1` (stereo not shown) [Example I-73] the “Post-emergence effect against SETVI in %” value ([1]; 20 g/ha) was 80%, the pest or weed control at 80 g/ha ([1]; 80 g/ha) was 90% and the pest or weed control at 320 g/ha ([1]; 320 g/ha) was 90%. It also gave a pest or weed control at 20 g/ha ([2]; Ipomoea purpurea, 504 h, 20 g/ha, read-out: Post-emergence effect against PHBPU in %) of 80%, a pest or weed control at 80 g/ha [2, 15] of 90% and a pest or weed control at 320 g/ha [2, 16] of 90%. For the same molecule, the pest or weed control at 80 g/ha ([3]; 80 g/ha) was 80%, the pest or weed control at 320 g/ha ([3]; 320 g/ha) was 90% and the pest or weed control at 20 g/ha ([4]; Echinochloa crus-galli, 504 h, 20 g/ha, visual rating about 3 weeks after treatment, read-out: Post-emergence effect against ECHCG) was 90%. It also gave a pest or weed control at 80 g/ha [4, 17] of 90%, a pest or weed control at 320 g/ha [4, 18] of 90% and a pest or weed control at 80 g/ha ([5]; 80 g/ha) of 90%. The pest or weed control at 320 g/ha ([5]; 320 g/ha) was 90%, the pest or weed control at 80 g/ha ([6]; 80 g/ha) was 90% and the pest or weed control at 320 g/ha ([6]; 320 g/ha) was 90%. For the same molecule, the “Post-emergence effect against POLCO in %” value ([7]; 20 g/ha) was 80%, the pest or weed control at 80 g/ha [7, 19] was 80% and the pest or weed control at 320 g/ha [7, 20] was 90%. The pest or weed control at 320 g/ha [8, 21] was 80%, the “Post-emergence effect against ABUTH” value ([9]; 20 g/ha) was 80% and the pest or weed control at 80 g/ha ([9]; 80 g/ha) was 80%. For the same molecule, the pest or weed control at 320 g/ha ([9]; 320 g/ha) was 90%, the pest or weed control at 80 g/ha ([10]; Lolium rigidum, 504 h, 80 g/ha, read-out: Post-emergence effect against LOLRI in %) was 90% and the pest or weed control at 320 g/ha [10, 22] was 90%. For the same molecule, the “Post-emergence effect against KCHSC in %” value ([11]; 20 g/ha) was 80%, the pest or weed control at 80 g/ha [11, 23] was 90% and the pest or weed control at 320 g/ha [11, 24] was 90%. The pest or weed control at 80 g/ha ([12]; 80 g/ha) was 90%, the pest or weed control at 320 g/ha ([12]; 320 g/ha) was 90% and the pest or weed control at 20 g/ha ([13]; Amaranthus retroflexus, 504 h, 20 g/ha, read-out: Post-emergence effect against AMARE) was 80%. For the same molecule, the pest or weed control at 80 g/ha [13, 25] was 90%, the pest or weed control at 320 g/ha [13, 26] was 90% and the pest or weed control at 20 g/ha ([14]; Viola tricolor, 504 h, 20 g/ha, read-out: Post-emergence effect against VIOTR in %) was 90%. It also gave a pest or weed control at 80 g/ha [14, 27] of 90% and a pest or weed control at 320 g/ha [14, 28] of 90%.

For `COC(=O)CCOC(=O)C(OC)Oc1nn(-c2cc(F)ccc2F)c(-c2cncc(F)c2)c1C1CC1` (stereo not shown) [Example I-83], the “Post-emergence effect against SETVI in %” value ([1]; 20 g/ha) was 90%, the “Post-emergence effect against SETVI in %” value ([1]; 80 g/ha) was 90% and the “Post-emergence effect against SETVI in %” value ([1]; 320 g/ha) was 90%. For the same molecule, the “Post-emergence effect against PHBPU in %” value ([2]; 20 g/ha) was 90%, the “Post-emergence effect against PHBPU in %” value ([2]; 80 g/ha) was 90% and the “Post-emergence effect against PHBPU in %” value ([2]; 320 g/ha) was 90%. For the same molecule, the “Post-emergence effect against ALOMY” value ([3]; 80 g/ha) was 90%, the “Post-emergence effect against ALOMY” value ([3]; 320 g/ha) was 90% and the “Post-emergence effect against ECHCG” value ([4]; 20 g/ha, visual rating about 3 weeks after treatment) was 90%. For the same molecule, the “Post-emergence effect against ECHCG in %” value ([4]; 80 g/ha) was 90%, the “Post-emergence effect against ECHCG in %” value ([4]; 320 g/ha) was 90% and the “Post-emergence effect against VERPE in %” value ([5]; 20 g/ha) was 90%. The “Post-emergence effect against VERPE in %” value ([5]; 80 g/ha) was 90%, the “Post-emergence effect against VERPE in %” value ([5]; 320 g/ha) was 90% and the “Post-emergence effect against MATIN in %” value ([6]; 20 g/ha) was 80%. For the same molecule, the “Post-emergence effect against MATIN in %” value ([6]; 80 g/ha) was 90%, the “Post-emergence effect against MATIN in %” value ([6]; 320 g/ha) was 90% and the “Post-emergence effect against POLCO in %” value ([7]; 80 g/ha) was 80%. For the same molecule, the “Post-emergence effect against POLCO in %” value ([7]; 320 g/ha) was 90%, the “Post-emergence effect against DIGSA” value ([8]; 320 g/ha) was 90% and the “Post-emergence effect against ABUTH” value ([9]; 20 g/ha) was 80%. For the same molecule, the “Post-emergence effect against ABUTH” value ([9]; 80 g/ha) was 90%, the “Post-emergence effect against ABUTH” value ([9]; 320 g/ha) was 90% and the “Post-emergence effect against LOLRI in %” value ([10]; 320 g/ha) was 90%. The “Post-emergence effect against KCHSC in %” value ([11]; 320 g/ha) was 80%, the “Post-emergence effect against AVEFA” value ([12]; 80 g/ha) was 90% and the “Post-emergence effect against AVEFA” value ([12]; 320 g/ha) was 90%. The “Post-emergence effect against AMARE” value ([13]; 20 g/ha) was 90%, the “Post-emergence effect against AMARE” value ([13]; 80 g/ha) was 90% and the “Post-emergence effect against AMARE” value ([13]; 320 g/ha) was 90%. The “Post-emergence effect against VIOTR in %” value ([14]; 20 g/ha) was 90%, the “Post-emergence effect against VIOTR in %” value ([14]; 80 g/ha) was 90% and the “Post-emergence effect against VIOTR in %” value ([14]; 320 g/ha) was 90%.
